According to ChEMBL document CHEMBL5113489, “Design, synthesis, and biological evaluation of membrane-active honokiol derivatives as potent antibacterial agents” (Eur J Med Chem, 2022):
The source made the active and inactive calls. The calls are words filed in the database; no cut-off is given here.

Experiments:
Staphylococcus aureus [1] = assay: Antibacterial activity against Staphylococcus aureus ATCC 31007; format: functional
Cell membrane [2] = assay: Induction of cytoplasmic membrane depolarization in Staphylococcus aureus ATCC 43300 assessed as increase in fluorescence intensity at 1 to 8 times MIC measured by DiSC3-5 dye based fluorescence method; format: subcellular
[3] = Toxicity in septicemia mouse model infected with Staphylococcus aureus ATCC 43300 assessed as effect on liver at 5 to 10 mg/kg, administered every 12 hrs for 3 days measured by histopathological analysis; format: organism-based; details: in vivo, dose 5-10 mg/kg
Escherichia coli [4] = assay: Anti-biofilm activity in Escherichia coli ATCC 25922 assessed as inhibition of biofilm formation at 2 ug/ml; format: functional
[5] = Cytotoxicity against human HepG2 cells assessed as cell viability at 128 ug/ml measured by SRB assay; format: toxicity, cell-based; details: dose 128 µg/ml, read-out: Activity
Escherichia coli [6] = assay: Antibacterial activity against Escherichia coli ATCC 25922 assessed as bacterial killing at 4 x MIC incubated for 9 hrs and measured by time-kill kinetic study; format: functional
Escherichia coli [7] = assay: Anti-biofilm activity in Escherichia coli ATCC 25922 assessed as disruption rate of biofilm at 64 ug/ml measured by crystal violet staining method; format: functional; details: dose 64 µg/ml
Escherichia coli [8] = assay: Anti-biofilm activity in Escherichia coli ATCC 25922 assessed as disruption rate of biofilm at 8 ug/ml measured by crystal violet staining method; format: functional; details: dose 8 µg/ml
Staphylococcus aureus [9] = assay: Anti-biofilm activity in Staphylococcus aureus ATCC 43300 assessed as disruption rate of biofilm at 8 ug/ml measured by crystal violet staining method; format: functional; details: dose 8 µg/ml
Cell membrane [10] = assay: Induction of cell membrane disruption in Escherichia coli ATCC 25922 assessed as increase in fluorescence intensity at 8 times MIC measured after 2 hrs by PI staining based fluorescence microscopic analysis; format: subcellular
Escherichia coli [11] = assay: Antibacterial activity against Escherichia coli ATCC 25922 assessed as resistance development by measuring fold increase in MIC; format: functional
Escherichia coli [12] = assay: Anti-biofilm activity in Escherichia coli ATCC 25922 assessed as disruption rate of biofilm at 32 ug/ml measured by crystal violet staining method; format: functional; details: dose 32 µg/ml
Staphylococcus aureus [13] = assay: In vivo antibacterial activity against Staphylococcus aureus ATCC 43300 in septicemia mouse model assessed as reduction in bacterial load in spleen at 10 mg/kg, administered every 12 hrs for 3 days; format: functional; design: scale not given: the % may be the effect or the level left
[14] = Toxicity in septicemia mouse model infected with Staphylococcus aureus ATCC 43300 assessed as effect on kidney at 5 to 10 mg/kg, administered every 12 hrs for 3 days measured by histopathological analysis; format: organism-based; details: in vivo, dose 5-10 mg/kg
[15] = Selectivity index, ratio of HC50 for hemolytic activity in sheep RBC to MIC for antibacterial activity against Staphylococcus aureus ATCC 43300; format: toxicity; details: sheep red blood cells (erythrocytes)
Escherichia coli [16] = assay: Anti-biofilm activity in Escherichia coli ATCC 25922 assessed as disruption rate of biofilm at 4 ug/ml measured by crystal violet staining method; format: functional; details: dose 4 µg/ml
Staphylococcus aureus [17] = assay: Anti-biofilm activity in Staphylococcus aureus ATCC 43300 assessed as disruption rate of biofilm at 1 ug/ml measured by crystal violet staining method; format: functional; details: dose 1 µg/ml
Staphylococcus aureus [18] = assay: In vivo antibacterial activity against Staphylococcus aureus ATCC 43300 in septicemia mouse model assessed as reduction in bacterial load in liver at 10 mg/kg, administered every 12 hrs for 3 days; format: functional; design: scale not given: the % may be the effect or the level left
Staphylococcus aureus [19] = assay: Anti-biofilm activity in Staphylococcus aureus ATCC 43300 assessed as inhibition of biofilm formation at 0.5 ug/ml; format: functional
Escherichia coli [20] = assay: Antibacterial activity against Escherichia coli ATCC 25922 assessed as bacterial killing at 8XMIC incubated for 3 hrs and measured by time-kill kinetic study; format: functional
Escherichia coli [21] = assay: Antibacterial activity against Escherichia coli ATCC 25922; format: functional

## C=CCc1ccc(OCCC[N+](C)(C)CCCCCC)c(-c2ccc(OCCC[N+](C)(C)CCCCCC)c(CC=C)c2)c1.[Br-].[Br-]
Staphylococcus aureus [1]
  MIC: 0.5 µg/mL
Cell membrane [2]
  Activity: Active
[3]
  Activity: Non-Toxic
Escherichia coli [4]
  inhibition at 2 µg/mL: 24.3%
[5]
  viability at 128 ug/ml: 36.6%
Escherichia coli [6]
  Activity: >=99%
Escherichia coli [7]
  Activity: 65.6%
Escherichia coli [8]
  Activity: 46.42%
Staphylococcus aureus [9]
  Activity: 28.56%
Cell membrane [10]
  Activity: Active
Escherichia coli [11]
  fold change (FC): <4
Escherichia coli [12]
  Activity: 57.36%
Staphylococcus aureus [13]
  Activity: 99.3%
[14]
  Activity: Non-Toxic
[15]
  selectivity ratio: 410
Escherichia coli [16]
  Activity: 27.99%
Staphylococcus aureus [17]
  Activity: 9.59%
Staphylococcus aureus [18]
  Activity: 99.5%
Staphylococcus aureus [19]
  inhibition at 0.5 µg/mL: 9.72%
Escherichia coli [20]
  Activity: 100%
Escherichia coli [21]
  MIC: 4 µg/mL
